Tests used:
[1] = system: 3-Hydroxy-3-Methylglutaryl Coenzyme A (HMG-CoA) Reductase; assay: HMG-CoA reductase activity in liver microsomes of treated dogs; format: in vivo, beagle dogs; conditions: 14 Days; for HMG-CoA Reductase: n=8
Description: Healthy female and male beagle dogs in the age range of 8 to 10 months were used. The animals were acclimated for at least four weeks before dose administration. […] Animals in the control group (group 1) were given the same number of empty capsules as the animals of group 5 to treat all dose groups the same.
At the end of the study, animals were anesthetized, their livers removed and flash frozen and stored at −80 C. Homogenates of three gram liver tissue samples were prepared in 25 ml homogenization buffer [0.1 M potassium phosphate buffer, pH 7.2, containing 0.1 M sucrose, 50 mM KCl, 50 mM NaF, 5 mM ethylene glycol-bis((3-aminoethyl ether)-N,N,N′,N′-tetraacetic acid (EGTA), 1 mM EDTA, 3 mM dithiothreitol (DTT), and 1 mM phenylmethylsulfonyl fluoride (PMSF)]. A microsomal fraction was prepared by centrifugation at 10,000×g for ten minutes. The supernatant was subjected to centrifugation at 105,000×g for two hours. The microsomal fraction was resuspended in a 0.1 M Na tetrapyrophosphate buffer (pH 10), with 50 mM NaF, and 1 mM EDTA, and subjected to centrifugation for one hour at 105,000×g. The microsomal fraction was resuspended in the homogenization buffer, and assayed for protein content by Coomassie Protein Plus Assay reagent.
Microsomes (200 μg) were preincubated for 15 minutes at 37° C. in a total volume of […] buffer containing 0.1 M potassium phosphate (pH 7.4), 10 mM imidazole, 5 mM DTT, 10 mM EDTA, 3 mM NADP, 12 mM glucose-6-phosphate and 1 unit glucose-6-phosphate dehydrogenase (catalog number G4134, Sigma, St. Louis). The HMG-CoA reductase assay was initiated by the addition of 9 nmoles (0.5 μCi) DL-[3^14C] HMG-CoA (final assay volume was […]. The mixture was incubated for 60 minutes at 37° C. after which the assay was stopped with 25 μl of 6 N HCl. [^3H]Mevalonic acid (0.1 μCi), used as an internal standard to correct for incomplete recovery, was added to the reaction mixture along with 3 mg of unlabeled mevalonic acid lactone. The mixture was then incubated for an additional 30 minutes at 37° C. The [^14C]mevalonate that was formed and converted into mevalonic acid lactone during both incubations was isolated by thin layer chromatography. Each lane was scraped into 3 ml of InstaGel XF (Packard, Meriden, Conn.) and read on a Beckman Scintillator Counter. Reagents unless noted otherwise were obtained from Sigma, St. Louis, Mo. Isotopes were obtained from NEN Life Science Products, Boston, Mass.

[2] = Single-dose [14C]LUM001 oral solution: radioactivity in plasma, blood, urine, feces; format: in vivo, human
Description: This was an open-label, one-period, single-dose study of a [^14C]LUM001 oral solution. Eight healthy male subjects received an oral solution of 5 mg [^14C]LUM001 (containing approximately […] per dose). Blood samples were collected at predose and for 72 hours postdose, urine samples were collected predose and for 168 hours postdose and feces were collected predose and for 216 hours postdose. Plasma, whole blood, urine and fecal samples were analyzed for total radioactivity, and selected fecal samples were analyzed for LUM001 and relevant metabolite concentrations. In addition, metabolic profiles in selected fecal samples were obtained using high performance liquid radio chromatography (HPLRC).

[3] = 5 mg [14C]LUM001 oral solution, eight healthy male subjects
[4] = 5 mg [14C]LUM001 oral solution, analyte in feces

## CCCCC1(CCCC)CS(=O)(=O)c2ccc(N(C)C)cc2[C@@H](c2ccc(OCc3ccc(C[N+]45CCN(CC4)CC5)cc3)cc2)[C@H]1O [LUM001]
[1]; 1 mg/kg/day
  HMG-CoA Reductase, % change from vehicle group: (+128) %
  HMG-CoA Reductase: 164 ± 20 pmol/mg/min
[1]; 4 mg/kg/day
  HMG-CoA Reductase, % change from vehicle group: (+242) %
  HMG-CoA Reductase: 246 ± 30 pmol/mg/min
[1]; 12 mg/kg/day
  HMG-CoA Reductase, % change from vehicle group: (+449) %
  HMG-CoA Reductase: 395 ± 46 pmol/mg/min
[1]; 30 mg/kg/day
  HMG-CoA Reductase, % change from vehicle group: (+656) %
  HMG-CoA Reductase: 544 ± 33 pmol/mg/min
[2]; 5 mg [14C]LUM001 oral solution
  Fecal radioactivity associated with unchanged free LUM001: 94%
[2]; [3]
  Radioactive dose detected in plasma, whole blood or urine: Less than 1%
  Total radioactive dose detected in feces: 72%
[2]; [4]
  Mean Percent of Dose in Feces: 65.0%
  Percent of Fecal Radioactivity: 94.4%
[2]; Feces incl. Toilet Paper (cumulative recovery in toilet paper from first five fecal samples)
  Cumulative % of Total Dose: 72.466%
[2]; Feces, 0-24 hr
  Cumulative % of Total Dose: 30.376%
[2]; Feces, 24-48 hr
  Cumulative % of Total Dose: 49.878%
[2]; Feces, 48-72 hr
  Cumulative % of Total Dose: 67.630%
[2]; Feces, 72-96 hr
  Cumulative % of Total Dose: 69.653%
[2]; Feces, 96-120 hr
  Cumulative % of Total Dose: 71.606%
[2]; Feces, 120-144 hr
  Cumulative % of Total Dose: 71.771%
[2]; Feces, 144-168 hr
  Cumulative % of Total Dose: 71.815%
[2]; Feces, 168-192 hr
  Cumulative % of Total Dose: 71.885%
[2]; Feces, 192-216 hr
  Cumulative % of Total Dose: 71.885%
[2]; Plasma, 0.5 hr
  Radioactive Concentration: BLQ
[2]; Plasma, 1 hr
  Radioactive Concentration: BLQ
[2]; Plasma, 1.5 hr
  Radioactive Concentration: BLQ
[2]; Plasma, 2 hr
  Radioactive Concentration: BLQ
[2]; Plasma, 2.5 hr
  Radioactive Concentration: BLQ
[2]; Plasma, 3 hr
  Radioactive Concentration: BLQ
[2]; Plasma, 4 hr
  Radioactive Concentration: BLQ
[2]; Plasma, 6 hr
  Radioactive Concentration: BLQ
[2]; Plasma, 8 hr
  Radioactive Concentration: BLQ
[2]; Plasma, 12 hr
  Radioactive Concentration: BLQ
[2]; Plasma, 16 hr
  Radioactive Concentration: 0.000 ng equivalents/mL
[2]; Plasma, 24 hr
  Radioactive Concentration: BLQ
[2]; Plasma, 36 hr
  Radioactive Concentration: 0.000 ng equivalents/mL
[2]; Plasma, 48 hr
  Radioactive Concentration: BLQ
[2]; Plasma, 60 hr
  Radioactive Concentration: BLQ
[2]; Plasma, 72 hr
  Radioactive Concentration: BLQ
[2]; Total (Urine and Feces)
  Cumulative % of Total Dose: 72.532%
[2]; Urine, 0-2 hr
  Cumulative % of Total Dose: 0.005%
[2]; Urine, 2-4 hr
  Cumulative % of Total Dose: 0.012%
[2]; Urine, 4-8 hr
  Cumulative % of Total Dose: 0.028%
[2]; Urine, 8-12 hr
  Cumulative % of Total Dose: 0.041%
[2]; Urine, 12-24 hr
  Cumulative % of Total Dose: 0.058%
[2]; Urine, 24-48 hr
  Cumulative % of Total Dose: 0.057%
[2]; Urine, 48-72 hr
  Cumulative % of Total Dose: 0.062%
[2]; Urine, 72-96 hr
  Cumulative % of Total Dose: 0.063%
[2]; Urine, 96-120 hr
  Cumulative % of Total Dose: 0.063%
[2]; Urine, 120-144 hr
  Cumulative % of Total Dose: 0.064%
[2]; Urine, 144-168 hr
  Cumulative % of Total Dose: 0.066%
[2]; Whole Blood, 1 hr
  Radioactive Concentration: 0.000 ng equivalents/g
[2]; Whole Blood, 4 hr
  Radioactive Concentration: 0.000 ng equivalents/g
[2]; Whole Blood, −0.5 hr
  Radioactive Concentration: 0.000 ng equivalents/g

Source: patent US20140271734A1, “BILE ACID RECYCLING INHIBITORS FOR TREATMENT OF BARRETT'S ESOPHAGUS AND GASTROESOPHAGEAL REFLUX DISEASE” (LUMENA PHARMACEUTICALS, INC., priority 2013, published 2014)
